In PMC4633953, “FR171456 is a specific inhibitor of mammalian NSDHL and yeast Erg26p” (Nature Communications, 2015):
Values joined by “and” are separate entries in the source; they are usually repeats but may differ in a detail not shown here. Equal entries are not always repeated.

Tests used:
[1] = test system: Aspergillus fumigatus NF4905; experiment: Antifungal MIC; type: cell-based
hepatic sterol synthesis = test system: hepatic sterol synthesis; set-up: method as in PMID 15217190; settings: rats, short term experiments, up to 10 mg kg^−1 ref 14; cited from earlier work
[2] = test system: Fusarium verticillioides NF4901; experiment: Antifungal MIC; type: cell-based
Candida albicans NF2103 = experiment: Antifungal MIC; type: cell-based
[3] = test system: sterol pathway intermediates in Huh-7 cells; settings: 80 nM vs 0 nM FR171456, 48 h
Experimental: In an attempt to understand which sterol (and other) metabolites are altered by FR171456 a metabolite-profiling experiment was conducted using cells from the original replicon assay exposed to vehicle or four concentrations of FR171456 (Fig. 1c,f, Methods, supplementary Fig. 2). Peaks in the mass spectra with statistically significant differences in intensities between the high (80 nM) and low (0 nM) concentration samples were selected by P values <0.01 (Student's t-test, Bonferroni corrected) and ranked by fold changes. Metabolite identities were assigned to those peaks whose m/z ratio corresponds to the mass of known metabolites (Supplementary Table 1).
Samples of cell pellets containing 8 × 10^6 cells each were lysed and extracted with 300 μl cold methanol (−80 °C) in ultrasonic bath for 10 min and subsequently agitated for 5 min before centrifugation at 10,000 g for 5 min at 4 °C. The supernatants were removed and the remaining pellets were again extracted twice. The supernatants from three extractions were then combined and dried using a SpeedVac (Savant, Fisher Scientific Inc., USA) for 2 h without heating. The residues were resuspended in 200 μl of 80% MeOH and centrifuged to remove any non-dissolvable particles. Finally, 10 μl of the supernatant was then diluted by factor 100 in MeOH/H2O (1:1) for mass spectrometric analysis.
The diluted sample (100 μl) was infused directly into a LTQ-Orbitrap mass spectrometer (Thermo Fisher Scientific, USA) using a HTC PAL autosampler (CTC Analytics, Zwingen, Switzerland) at a flow rate of 18 μl min^–1. A make-up flow, consisting of 70% ethanol and 0.1% formic acid, was delivered through a T-piece at 15 μl min^–1. Electrospray ionization and selected monitoring scan were applied. The total mass range m/z 100–2,000 was segmented into […] scan events with a width of mass window m/z 50 each. Mass resolution at m/z 400 was 100,000.
Each sample was measured in triplicate in positive ionization mode in random order. For quality and instrument stability control, the samples were interspersed with test mix infusion and pooled samples. Blank spectra were also recorded and the observed mass peaks of solvent and impurities were then suppressed in subsequent analysis.
The measured raw spectra were imported with in-house software written in the Igor package (Wavemetrics Inc.) for alignment, peak detection, and integral normalization. The table of exact peak masses and intensities (Supplementary Data, file Supplementary Dataset 1) were exported into the statistical software R, version 2.15.1, for subsequent univariate statistics and pathway analysis. For peak identification, the KEGG database was searched for matches of the observed peaks with endogenous metabolite entries. Metabolite masses with adducts of H^+, Na^+, or K^+ were considered a hit and possible identity of a peak if the difference between its exact monoisotopic mass and the observed mass plus adducts was below 3 p.p.m.

Aspergillus favus NF4902 = experiment: Antifungal MIC; type: cell-based
HepG2 = experiment: Mammalian cell proliferation, HepG2; type: cell-based
[4] = test system: Scedosporium apiospermum NF4908; experiment: Antifungal MIC; type: cell-based
[5] = test system: Aspergillus terreus NF4906; experiment: Antifungal MIC; type: cell-based
Erg26p [6] = target: T1, Erg26p (Saccharomyces cerevisiae, UniProt P53199); experiment: In vitro microsomal Erg26p activity assay (GC-MS)
T1 sequence (P53199 1-349): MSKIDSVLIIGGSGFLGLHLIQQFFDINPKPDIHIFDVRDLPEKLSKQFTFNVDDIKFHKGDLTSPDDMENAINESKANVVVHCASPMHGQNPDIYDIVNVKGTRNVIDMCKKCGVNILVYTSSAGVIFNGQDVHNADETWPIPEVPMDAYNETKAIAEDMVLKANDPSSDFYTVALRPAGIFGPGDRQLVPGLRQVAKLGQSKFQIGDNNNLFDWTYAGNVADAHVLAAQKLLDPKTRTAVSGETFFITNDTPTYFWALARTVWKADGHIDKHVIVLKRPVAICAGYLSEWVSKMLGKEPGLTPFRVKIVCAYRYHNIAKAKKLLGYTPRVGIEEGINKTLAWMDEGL
Experimental: (§3) To test this hypothesis an in vitro microsomal Erg26p activity assay[30] was used. Erg26p activity was directly assessed in the presence of increasing concentrations of FR171456 (10 nM–0.1 mM) in the presence of 150 μM carboxysterol substrate (Fig. 1c) and the cofactor NAD^+ (0.5 mM) followed by GC-MS detection of the product 4α-methyl-cholest-8,24-dien-3-one.
(§4) Wild-type yeast (FL200) microsomes were prepared as follows. Yeast cells were disrupted by glass bead homogenization (0.45-mm diameter) in 100 mM phosphate buffer (pH 7.5) containing 1.5 mM reduced glutathione and 30 mM nicotinamide for 8 min at 0 °C[44]. The cell extract was obtained by centrifugation at 10,000 × g for 20 min. Microsomes were then isolated by centrifuging the cell extract supernatant at 100,000 × g for 90 min. The resulting microsomal pellet was resuspended in 100 mM phosphate buffer (pH 7.5) containing 3 mM reduced glutathione and 20% glycerol (v/v) using an Elvehjem–Potter homogenizer. Yeast microsomes (1.2 mg of protein) were incubated in the presence of 4α-carboxy-4β-methyl-cholest-8,24-dien-3β-ol (50–300 mM) and NAD^+ (0.5 mM) for 35–45 min at 30 °C. After addition of coprostanone (2–6 μg) as internal standard, the reactions were extracted as described previously[12]. The extract was analysed by TLC on silica gel and eluted twice with CH2Cl2. The fraction migrating between a standard of 4-desmethyl-sterone (RF= 0.50) and 4,4-dimethyl-sterone (RF=0.70) was eluted and analysed using a GC-MS spectrometer (Agilent 5973 N).
(§5) In the case of inhibition assays, microsomes were incubated for 35–45 min at 30 °C in the presence of 4α-carboxy-4β-methyl-cholest-8,24-dien-3β-ol (50–300 mM) and a range of inhibitor concentration (0.01–100 μM) from which a dose–response curve was obtained allowing the corresponding I50 values to be determined.
(§6) The GC-MS spectrometer (Agilent 5973 N) was equipped with an ‘on column' injector and a capillary column (30 × 0.25 mm) coated with DB5 (H2 flow rate of 2 ml min^−1). The temperature program included a 30 °C min^−1 increase from 60 °C to 240 °C, and followed by a 2 °C/min increase from 240 °C to 280 °C. The areas of the GC peaks of coprostanone (tR=1.000) and of the produced 4α-methyl-cholest-8,24-dien-3-one (tR=1.139), corrected from endogenous component of the same tR (1.139) determined in the blank (boiled microsomes), allowed the rate of transformation of 4α-carboxy-4β-methyl-cholest-8,24-dien-3β-ol to be measured. Under these conditions, the estimated limit of detection of the 3βHSD/D activity was 0.1 nmol h^−1 mg^−1.

Erg26p [7] = target: T1, Erg26p; experiment: biochemical
Experimental: as §3, §4, §5, §6

Erg26p Arg307His = experiment: In vitro microsomal Erg26p activity assay, mutant; type: biochemical, S. cerevisiae; settings: microsome extracts
Description: (§1) Thus many of the FR171456 resistance mutations were mapped close to the NAD^+ or the substrate-binding site. The presence of three active conservative mutations Arg39Lys, […], and Arg315His in proximity to NAD^+ and substrate-binding site are consistent with FR171456 binding the substrate-binding pocket thus inhibiting the enzymatic activity. To address this more directly, we tested microsome extracts from the erg26Δ haploid yeast strains expressing the Erg26p wild type, Arg39Lys, Arg307His and Arg315His mutants in increasing doses of FR171456 to assess Erg26p mutant activity (Fig. 3b). Whilst Arg39Lys and Arg307His shift the I50 2-fold, Arg315His confers a 20-fold shift in I50. This highlights the importance of the interaction between Arg315 and the carboxyl group of the substrate/inhibitor as one of the most critical in the Erg26p active site (Fig. 3c).
(§2) Wild-type yeast (FL200) microsomes were prepared as follows.

Erg26p Arg39Lys = experiment: In vitro microsomal Erg26p activity assay, mutant; type: biochemical, S. cerevisiae; settings: microsome extracts
Description: as §1, §2

Erg26p Arg315His = experiment: In vitro microsomal Erg26p activity assay, mutant; type: biochemical, S. cerevisiae; settings: microsome extracts
Description: as §1, §2

C=C(CCC(C)C1CCC2C1(C)CC(O)C13CC14C(=O)CC(O)C(C)(C(=O)O)C4C(=O)CC23O)C(C)C [FR171456, (1R,2aR,3R,5aR,5bS,7aR,8S,9S,11aS,12aR)-1,5b,9-trihydroxy-2a,8-dimethyl-3-((R)-6-methyl-5-methyleneheptan-2-yl)-7,11-dioxohexadecahydrocyclopenta[a]cyclopropa[e]-phenanthrene-8-carboxylic acid]
MIC [1]: 16 µg/mL and 36 µM
dose giving significant reduction in hepatic sterol synthesis (hepatic sterol synthesis): 0.1 mg/kg
MIC [2]: 32 µg/mL and 72 µM
MIC (Candida albicans NF2103): 32 µg/mL and 72 µM
Fold change, m/z 401.3418 (calcidiol, 7α-hydroxycholest-4-en-3-one) [3]: 0.680
Fold change, m/z 463.3183 (pfaffic acid) [3]: infinite
Fold change, m/z 465.3339 (4α-methylzymosterol-4-carboxylate) [3]: 822.2
Fold change, m/z 467.3496 (3β-hydroxy-4β-methyl-5α-cholest-7-ene-4α-carboxylate) [3]: 3675.4
Fold change, m/z 489.3314 (not identified) [3]: infinite
Fold change, m/z 1198.8982 (not identified) [3]: 9665.6
MIC (Aspergillus favus NF4902): 64 µg/mL and 144 µM
concentration affecting proliferation (HepG2): 80 µM
MIC [4]: 64 µg/mL and 144 µM
MIC [5]: 4 µg/mL and 9 µM
Ki (Erg26p [6]): 1350 ± 300 nM
I50/Km ratio (Erg26p [6]; for the carboxysterol substrate): ~4 × 10^−3
IC50 (Erg26p [7]): 2200 ± 500 nM
shift in I50 versus wild type (Erg26p Arg307His): 2 fold
shift in I50 versus wild type (Erg26p Arg39Lys): 2 fold
shift in I50 versus wild type (Erg26p Arg315His): 20 fold
